Test results published in US20220282295A1, “SINGLE-CELL LEVEL CONNECTOMICS USING A DNA-SYNTHESIS BASED BARCODING SYSTEM AND METHODS OF USING THE SAME” (Northwestern University, priority 2021, published 2022).

What was measured:
HEK cells = assay: Toxicity of input signal treatment to cells; format: cell-based; settings: 500 μM treatment
Source text: (§1) Further, this system allowed for the recording of a dose response in the output signal for varying concentrations of the input signals of dAdo, dThd and dGuo (FIGS. 2A, 2B and 2C). […] None of the current genetically encoded signal recording systems^12,13 synthesize a DNA-based record in a dose response manner in mammalian cells. This salient feature of being able to synthesize a record of various NTP concentrations in the genome of cells can help in the spatial reconstruction of tightly packed together cells in tissue. Moreover, since the output signal is high (e.g. with 5 mM dThd), several lower concentrations can be distinguished, thus providing a single-cell level resolution.

HEK 293T cells = assay: TdT-based nucleotide incorporation into hgRNA sites (DNA-synthesis based recording system, Cas9 + hgRNA + TdT) upon deoxyribonucleoside input signal; format: cell-based
Description: The disclosed system has been prototyped in HEK-293T cells. A hgRNA was co-expressed with terminal deoxynucleotidyl transferase (TdT), and Cas9. The TdT was directed to the double-stranded breaks created by Cas9 at the hgRNA sites and added nucleotides in HEK 293T cells (FIG. 1B).
HEK 293T cells were treated with an adenosine deaminase inhibitor, pentostatin (deoxycoformycin, dCF), that inhibits degradation of dAdo, resulting in an altered nucleotide pool. The added small molecules (dAdo, dGuo, dCF etc) were defined as the input signal. The percentage change in the TdT-based nucleotides incorporated into the hgRNA sites was defined as the output signal.
as §1

[1] = input signal 5 mM, HEK 293T cells, FIG. 2B

## Nc1ncnc2c1ncn2[C@H]1C[C@H](O)[C@@H](CO)O1 [dAdo, deoxyadenosine]
HEK cells
  toxicity to HEK cells: toxic
HEK 293T cells; 0 to 500 μM, except for 50 μM treatment, FIG. 2A
  dose response in the output signal with each increasing concentration of input signal: higher output signal
HEK 293T cells; HEK 293T cells
  output signal response to input signal (in words): high output signal response

## OC[C@H]1O[C@@H](n2cnc3c2NC=NC[C@H]3O)C[C@@H]1O [dCF, pentostatin]
HEK 293T cells; HEK 293T cells
  output signal response to input signal (in words): high output signal response

## Nc1nc2c(ncn2[C@H]2C[C@H](O)[C@@H](CO)O2)c(=O)[nH]1 [dGuo, deoxyguanosine]
HEK 293T cells; HEK 293T cells
  output signal response to input signal (in words): high output signal response

## Cc1cn([C@H]2C[C@H](O)[C@@H](CO)O2)c(=O)[nH]c1=O [dThd, deoxythymidine]
HEK 293T cells; [1]
  output signal (percentage change in TdT-based nucleotides incorporated into the hgRNA sites) for A: 8%
  output signal (percentage change in TdT-based nucleotides incorporated into the hgRNA sites) for C: 10%
  output signal (percentage change in TdT-based nucleotides incorporated into the hgRNA sites) for G: 17.5%
  output signal (percentage change in TdT-based nucleotides incorporated into the hgRNA sites) for T: 20%
